Reference: US8044069B2, “Compounds as calcium channel blockers” (Abbott Laboratories, priority 2008, dated 2011)

Each molecule was assayed against human Cav2.2 (Homo sapiens, UniProt Q00975) (assay: Assessment of calcium channel activity using FLIPR (Ca2+ influx in IMR32 cells)). Settings: IMR32 cells endogenously expressing human Cav2.2; 60 minute pre-incubation; 2 μM nifedipine; depolarized with 80 mM KCl, 5 mM CaCl2.
Type: cell-based
Protocol: (i) In Vitro Methods—Assessment of Calcium Channel Activity Using FLIPR:
The IMR32 cells were maintained in MEM media containing 10% (v/v) FBS, 1% (v/v) antibiotic/antimitotic, 1% (v/v) sodium pyruvate and 1% (v/v) MEM NEAA. Following dissociation in 0.05% (v/v) trypsin/EDTA, cells were seeded into black 1×96-well plates (Corning Cellbind) at a density of 1-1.2×10^5 cells/well and incubated in the maintenance media above for 48 hours at 37° C. […] After dye loading and a subsequent 60 minute pre-incubation with compounds (full log dilutions from 10 μM to 0.1 nM) in the presence of 1.3 mM CaCl2 and 2 μM nifedipine to block endogenous L-type channels, the external Ca^2+ concentration was increased to 5 mM CaCl2 and the cells concomitantly depolarized with 80 mM KCl to assay channel activity. To determine the IC50 values, the percent inhibition of the compound at each concentration was determined relative to the activity in the absence of inhibitor, and data was fitted using non-linear regression sigmoidal dose response curve analysis with GraphPad Prism®.

Sequence of human Cav2.2 (Q00975 whole entry): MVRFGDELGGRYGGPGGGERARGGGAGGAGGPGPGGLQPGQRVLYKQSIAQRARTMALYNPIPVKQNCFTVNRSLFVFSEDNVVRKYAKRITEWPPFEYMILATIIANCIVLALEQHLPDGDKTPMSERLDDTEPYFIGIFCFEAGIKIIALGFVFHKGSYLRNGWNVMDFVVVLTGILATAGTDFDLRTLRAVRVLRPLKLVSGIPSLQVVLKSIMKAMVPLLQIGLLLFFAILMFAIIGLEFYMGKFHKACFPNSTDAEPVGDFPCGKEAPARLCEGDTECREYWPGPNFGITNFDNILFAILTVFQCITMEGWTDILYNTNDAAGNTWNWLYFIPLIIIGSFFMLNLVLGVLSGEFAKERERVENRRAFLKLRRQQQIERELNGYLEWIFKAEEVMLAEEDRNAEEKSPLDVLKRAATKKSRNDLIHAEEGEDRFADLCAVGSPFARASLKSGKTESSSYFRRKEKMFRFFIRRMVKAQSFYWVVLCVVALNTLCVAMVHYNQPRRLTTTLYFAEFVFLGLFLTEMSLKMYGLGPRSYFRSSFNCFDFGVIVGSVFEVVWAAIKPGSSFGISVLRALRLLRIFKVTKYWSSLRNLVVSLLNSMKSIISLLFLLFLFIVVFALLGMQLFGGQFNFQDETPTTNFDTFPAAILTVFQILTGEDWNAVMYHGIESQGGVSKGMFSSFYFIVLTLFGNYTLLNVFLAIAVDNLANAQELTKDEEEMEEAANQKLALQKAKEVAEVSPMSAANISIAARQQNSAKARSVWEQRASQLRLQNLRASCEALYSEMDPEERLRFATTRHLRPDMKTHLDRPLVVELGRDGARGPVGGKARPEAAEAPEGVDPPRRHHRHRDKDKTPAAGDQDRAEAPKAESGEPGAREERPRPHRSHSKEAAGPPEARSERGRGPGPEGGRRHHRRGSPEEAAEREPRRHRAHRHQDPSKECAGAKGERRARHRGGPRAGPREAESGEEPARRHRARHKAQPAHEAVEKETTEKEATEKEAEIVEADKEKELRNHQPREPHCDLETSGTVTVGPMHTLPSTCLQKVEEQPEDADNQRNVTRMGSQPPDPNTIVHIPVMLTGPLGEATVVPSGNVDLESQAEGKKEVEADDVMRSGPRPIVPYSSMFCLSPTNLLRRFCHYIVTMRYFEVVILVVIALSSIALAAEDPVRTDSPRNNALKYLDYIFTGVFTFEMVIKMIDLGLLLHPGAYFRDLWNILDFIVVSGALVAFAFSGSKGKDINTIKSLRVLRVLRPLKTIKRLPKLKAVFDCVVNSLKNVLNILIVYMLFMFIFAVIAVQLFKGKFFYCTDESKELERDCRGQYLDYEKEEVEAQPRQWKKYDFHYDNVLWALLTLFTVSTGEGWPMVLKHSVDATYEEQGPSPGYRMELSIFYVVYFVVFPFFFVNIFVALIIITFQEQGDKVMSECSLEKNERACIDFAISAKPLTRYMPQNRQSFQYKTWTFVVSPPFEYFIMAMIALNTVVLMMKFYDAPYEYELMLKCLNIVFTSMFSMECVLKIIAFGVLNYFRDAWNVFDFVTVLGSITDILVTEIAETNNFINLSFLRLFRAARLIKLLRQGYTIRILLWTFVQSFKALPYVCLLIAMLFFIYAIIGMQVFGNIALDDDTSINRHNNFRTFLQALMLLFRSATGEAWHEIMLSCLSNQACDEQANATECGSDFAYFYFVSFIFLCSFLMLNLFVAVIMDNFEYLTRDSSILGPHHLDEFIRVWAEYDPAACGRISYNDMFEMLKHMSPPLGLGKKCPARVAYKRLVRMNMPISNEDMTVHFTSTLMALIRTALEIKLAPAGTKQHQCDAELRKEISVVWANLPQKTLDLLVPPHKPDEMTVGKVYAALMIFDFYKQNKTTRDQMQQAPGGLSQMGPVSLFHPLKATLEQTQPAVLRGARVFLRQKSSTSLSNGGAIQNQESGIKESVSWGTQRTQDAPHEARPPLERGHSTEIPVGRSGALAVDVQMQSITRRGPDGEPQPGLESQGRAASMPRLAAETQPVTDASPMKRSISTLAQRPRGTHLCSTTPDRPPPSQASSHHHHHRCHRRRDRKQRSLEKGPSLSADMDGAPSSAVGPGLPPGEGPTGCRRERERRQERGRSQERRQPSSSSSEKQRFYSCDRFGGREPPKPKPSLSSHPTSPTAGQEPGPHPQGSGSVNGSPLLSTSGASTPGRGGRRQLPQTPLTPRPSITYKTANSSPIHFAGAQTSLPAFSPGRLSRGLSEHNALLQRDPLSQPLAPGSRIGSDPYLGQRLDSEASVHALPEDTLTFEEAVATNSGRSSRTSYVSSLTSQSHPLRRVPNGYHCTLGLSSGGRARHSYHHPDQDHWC
Sequence of human Cav2.2 (P54289 25-951 partner limits assumed): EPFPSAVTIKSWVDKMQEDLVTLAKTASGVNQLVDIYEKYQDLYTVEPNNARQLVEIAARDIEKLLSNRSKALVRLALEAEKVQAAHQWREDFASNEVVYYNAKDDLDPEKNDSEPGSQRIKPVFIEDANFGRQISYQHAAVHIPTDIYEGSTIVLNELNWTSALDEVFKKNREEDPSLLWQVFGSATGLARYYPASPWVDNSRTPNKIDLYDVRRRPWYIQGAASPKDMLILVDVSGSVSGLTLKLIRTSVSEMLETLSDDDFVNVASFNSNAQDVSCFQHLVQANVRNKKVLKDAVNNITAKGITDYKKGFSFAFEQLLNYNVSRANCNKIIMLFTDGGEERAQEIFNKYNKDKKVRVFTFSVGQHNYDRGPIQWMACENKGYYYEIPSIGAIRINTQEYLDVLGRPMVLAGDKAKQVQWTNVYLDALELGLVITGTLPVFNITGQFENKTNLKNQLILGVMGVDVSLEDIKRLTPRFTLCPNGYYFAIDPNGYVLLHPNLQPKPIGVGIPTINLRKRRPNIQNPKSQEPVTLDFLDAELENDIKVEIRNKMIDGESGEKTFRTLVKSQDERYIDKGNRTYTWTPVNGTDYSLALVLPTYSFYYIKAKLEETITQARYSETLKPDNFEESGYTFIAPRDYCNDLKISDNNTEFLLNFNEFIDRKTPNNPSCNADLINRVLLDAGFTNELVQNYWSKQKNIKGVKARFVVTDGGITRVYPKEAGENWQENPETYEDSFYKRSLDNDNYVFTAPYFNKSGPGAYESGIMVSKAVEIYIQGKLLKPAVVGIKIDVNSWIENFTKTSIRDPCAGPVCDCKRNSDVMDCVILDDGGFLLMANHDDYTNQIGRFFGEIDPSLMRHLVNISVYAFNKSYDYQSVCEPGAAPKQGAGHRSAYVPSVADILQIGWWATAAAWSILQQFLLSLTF
Sequence of human Cav2.2 (P54289 952-1103 partner limits assumed): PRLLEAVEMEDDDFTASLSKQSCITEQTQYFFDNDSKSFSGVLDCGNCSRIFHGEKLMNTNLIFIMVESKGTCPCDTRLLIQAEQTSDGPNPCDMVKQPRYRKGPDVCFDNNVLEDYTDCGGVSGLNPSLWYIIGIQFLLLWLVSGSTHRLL
Sequence of human Cav2.2 (P54284 whole entry partner): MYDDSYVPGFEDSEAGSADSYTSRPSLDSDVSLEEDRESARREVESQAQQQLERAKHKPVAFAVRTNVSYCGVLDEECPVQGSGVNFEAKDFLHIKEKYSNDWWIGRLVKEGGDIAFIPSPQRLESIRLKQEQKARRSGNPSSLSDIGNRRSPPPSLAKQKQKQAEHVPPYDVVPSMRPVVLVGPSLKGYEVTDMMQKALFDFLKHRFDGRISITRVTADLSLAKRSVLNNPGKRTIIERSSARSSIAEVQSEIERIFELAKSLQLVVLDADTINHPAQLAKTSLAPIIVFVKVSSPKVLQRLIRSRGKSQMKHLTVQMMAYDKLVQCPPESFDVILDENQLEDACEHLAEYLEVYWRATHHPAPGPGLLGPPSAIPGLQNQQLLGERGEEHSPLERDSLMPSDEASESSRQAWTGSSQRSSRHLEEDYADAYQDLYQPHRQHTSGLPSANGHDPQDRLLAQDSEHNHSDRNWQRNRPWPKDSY

SMILES | IC50 [µM]
O=C1N(Cc2nc(-c3ccc4[nH]ncc4c3)no2)CCCC1(c1ccccc1)c1ccccc1 [Example 154, 1-{[3-(1H-indazol-5-yl)-1,2,4-oxadiazol-5-yl]methyl}-3,3-diphenylpiperidin-2-one] | 5.15
O=C1N(CCCN2CCN(c3ncccn3)CC2)CCCC1(c1ccc(F)cc1)c1ccc(F)cc1 [Example 135, 3,3-bis(4-fluorophenyl)-1-[3-(4-pyrimidin-2-ylpiperazin-1-yl)propyl]piperidin-2-one] | 3.01
COc1ccc(C2(c3ccc(OC)cc3)CCCN(CCN(C)CCc3ccc(OC)cc3OC)C2=O)cc1 [Example 126, 1-{2-[[2-(2,4-dimethoxyphenyl)ethyl](methyl)amino]ethyl}-3,3-bis(4-methoxyphenyl)piperidin-2-one] | 1.49
O=C(CN1CCC(c2ccccc2)(c2ccccc2)C1=O)NC1CCN(C(c2ccccc2)c2ccccc2)CC1 [Example 48, N-(1-benzhydrylpiperidin-4-yl)-2-(2-oxo-3,3-diphenylpyrrolidin-1-yl)acetamide] | 0.4
Cc1nc(-c2cccc(C(F)(F)F)c2)sc1CN1CCC(c2ccccc2)(c2ccccc2)C1=O [Example 157, 1-({4-methyl-2-[3-(trifluoromethyl)phenyl]-1,3-thiazol-5-yl}methyl)-3,3-diphenylpyrrolidin-2-one] | 5.21
CC1(NC(=O)CN2CCCC(c3ccccc3)(c3ccccc3)C2=O)CCN(Cc2ccccc2)C1 (stereo not drawn) [Example 89, N-(1-benzyl-3-methylpyrrolidin-3-yl)-2-(2-oxo-3,3-diphenylpiperidin-1-yl)acetamide] | 3
O=C(CN1CCC(c2ccccc2)(c2ccccc2)C1=O)NCc1ccc(F)cc1 [Example 12, N-(4-fluorobenzyl)-2-(2-oxo-3,3-diphenylpyrrolidin-1-yl)acetamide] | 3.89
O=C(CN1CCCC(c2ccccc2)(c2ccccc2)C1=O)N1CCC(Oc2ccc(Cl)cc2)CC1 [Example 158, 1-{2-[4-(4-chlorophenoxy)piperidin-1-yl]-2-oxoethyl}-3,3-diphenylpiperidin-2-one] | 4.07
COCc1cc(/C=C/c2ccccc2OCC(O)CN(C)CCN2CCC(c3ccc(F)cc3)(c3ccc(F)cc3)C2=O)on1 (stereo not drawn) [Example 107, 3,3-bis(4-fluorophenyl)-1-{2-[[2-hydroxy-3-(2-{(E)-2-[3-(methoxymethyl)isoxazol-5-yl]vinyl}phenoxy)propyl](methyl)amino]ethyl}pyrrolidin-2-one] | 1.88
O=C(CN1CCC(c2ccccc2)(c2ccccc2)C1=O)N1CCC(NCc2cccc(C(F)(F)F)c2)CC1 [Example 42, 1-[2-oxo-2-(4-{[3-(trifluoromethyl)benzyl]amino}piperidin-1-yl)ethyl]-3,3-diphenylpyrrolidin-2-one] | 1.13
O=C(CN1CCCC(c2ccccc2)(c2ccccc2)C1=O)N1CCC(=C(c2ccc(F)cc2)c2ccc(F)cc2)CC1 [Example 171, 1-(2-{4-[bis(4-fluorophenyl)methylene]piperidin-1-yl}-2-oxoethyl)-3,3-diphenylpiperidin-2-one] | 2.45
O=C(CN1CCC(c2ccccc2)(c2ccccc2)C1=O)N1Cc2ccc(F)cc2C1 [Example 26, 1-[2-(5-fluoro-1,3-dihydro-2H-isoindol-2-yl)-2-oxoethyl]-3,3-diphenylpyrrolidin-2-one] | 4.93
O=C(CN1CCC(c2ccccc2)(c2ccccc2)C1=O)N1Cc2ccc(C(F)(F)F)cc2C1 [Example 20, 1-{2-oxo-2-[5-(trifluoromethyl)-1,3-dihydro-2H-isoindol-2-yl]ethyl}-3,3-diphenylpyrrolidin-2-one] | 2.82
O=C1N(Cc2nc(-c3ccc(F)cc3)no2)CCCC1(c1ccccc1)c1ccccc1 [Example 100, 1-{[3-(4-fluorophenyl)-1,2,4-oxadiazol-5-yl]methyl}-3,3-diphenylpiperidin-2-one] | 5.29
O=C(CN1CCC(c2ccccc2)(c2ccccc2)C1=O)NCc1nccs1 [Example 3, 2-(2-oxo-3,3-diphenylpyrrolidin-1-yl)-N-(1,3-thiazol-2-ylmethyl)acetamide] | 13.4

The remaining lines, values ahead:

IC50 [µM] | SMILES
6.54 | Nc1ccc(-c2noc(CN3CCC(c4ccccc4)(c4ccccc4)C3=O)n2)cn1 [Example 234, 1-{[3-(6-aminopyridin-3-yl)-1,2,4-oxadiazol-5-yl]methyl}-3,3-diphenylpyrrolidin-2-one]
2.48 | O=C(CN1CCC(c2ccc(F)cc2)(c2ccc(F)cc2)C1=O)Nc1ccc(Cl)cn1 [Example 225, 2-[3,3-bis(4-fluorophenyl)-2-oxopyrrolidin-1-yl]-N-(5-chloropyridin-2-yl)acetamide]
6.16 | O=C(CN1CCC(c2ccc(F)cc2)C1=O)N1CCc2cc(Cl)ccc2C1 (stereo not drawn) [Example 257, 1-[2-(6-chloro-3,4-dihydroisoquinolin-2(1H)-yl)-2-oxoethyl]-3-(4-fluorophenyl)pyrrolidin-2-one]
2.4 | O=C(CN1CCC(c2ccc(F)cc2)(c2ccc(F)cc2)C1=O)NC1CCN(Cc2cccc(C(F)(F)F)c2)CC1 [Example 208, 2-[3,3-bis(4-fluorophenyl)-2-oxopyrrolidin-1-yl]-N-{1-[3-(trifluoromethyl)benzyl]piperidin-4-yl}acetamide]
8.99 | O=C1N(Cc2nc(-c3cnccn3)no2)CCC1(c1ccccc1)c1ccccc1 [Example 230, 3,3-diphenyl-1-[(3-pyrazin-2-yl-1,2,4-oxadiazol-5-yl)methyl]pyrrolidin-2-one]
7.51 | O=C(CN1CCC(c2ccc(F)cc2)C1=O)N1CCc2ccc(Cl)cc2C1 (stereo not drawn) [Example 256, 1-[2-(7-chloro-3,4-dihydroisoquinolin-2(1H)-yl)-2-oxoethyl]-3-(4-fluorophenyl)pyrrolidin-2-one]
11.4 | O=C(CN1CCC(c2ccc(F)cc2Cl)C1=O)N1Cc2ccc(F)cc2C1 (stereo not drawn) [Example 268, 3-(2-chloro-4-fluorophenyl)-1-[2-(5-fluoro-1,3-dihydro-2H-isoindol-2-yl)-2-oxoethyl]pyrrolidin-2-one]
0.96 | O=C(CN1CCCC(c2ccccc2)(c2ccccc2)C1=O)NC1CCN(Cc2ccc(F)c(C(F)(F)F)c2)CC1 [Example 183, N-{1-[4-fluoro-3-(trifluoromethyl)benzyl]piperidin-4-yl}-2-(2-oxo-3,3-diphenylpiperidin-1-yl)acetamide]
8.32 | N#Cc1ccc(NC(=O)CN2CCC(c3ccccc3)(c3ccccc3)C2=O)nc1 [Example 251, N-(5-cyanopyridin-2-yl)-2-(2-oxo-3,3-diphenylpyrrolidin-1-yl)acetamide]
4.01 | O=C1N(Cc2noc(-c3ccc(C(F)(F)F)cc3)n2)CCC1(c1ccccc1)c1ccccc1 [Example 196, 3,3-diphenyl-1-({5-[4-(trifluoromethyl)phenyl]-1,2,4-oxadiazol-3-yl}methyl)pyrrolidin-2-one]
3.18 | N#Cc1ccc(-c2noc(CN3CCC(c4ccc(F)cc4)(c4ccc(F)cc4)C3=O)n2)cc1 [Example 235, 4-(5-{[3,3-bis(4-fluorophenyl)-2-oxopyrrolidin-1-yl]methyl}-1,2,4-oxadiazol-3-yl)benzonitrile]
1.91 | O=C1N(Cc2nc(-c3cnccn3)no2)CCC1(c1ccc(F)cc1)c1ccc(F)cc1 [Example 232, 3,3-bis(4-fluorophenyl)-1-[(3-pyrazin-2-yl-1,2,4-oxadiazol-5-yl)methyl]pyrrolidin-2-one]
